For 54 compounds, IC50 results are on record in patent US8946266B2, “Substituted triazole and imidazole derivatives as gamma secretase modulators” (Janssen Pharmaceuticals, Inc., priority 2009, dated 2015).

What is called IC50 is the concentration at which inhibition is half-maximal.

Assay [1] has as its system Aβ42. Nature of the assay: γ-secretase-modulating activity, Method 2: Aβ42 Alphalisa in supernatant of SKNBE2 cells carrying APP 695-wild type (Table 3b). The assay is classed as cell-based. The conditions noted are these: overnight. The method in brief: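 SKNBE2 cells expressing wild-type APP695 were incubated overnight at 37° C. with test compound. Secreted Aβ42 was then measured by AlphaLISA, using a C-terminal Aβ42 antibody paired with an N-terminal Aβ antibody. IC50 came from a 4-parameter fit of percent of compound-free control.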
A general note: Bead proximity is the source of the signal in Alpha formats.

The subject of assay [2] is Aβtotal. Nature of the assay: γ-secretase-modulating activity, Method 2: Aβtotal Alphalisa in supernatant of SKNBE2 cells carrying APP 695-wild type (Table 3b). The assay is classed as cell-based. As to conditions: overnight, read-out: IC50 Aβtot. The method in brief: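 SKNBE2 cells expressing wild-type APP 695 were incubated overnight at 37 °C, 5% CO2 with test compound at a range of concentrations. Aβtotal in supernatant was measured by AlphaLISA sandwich (N-terminal JRF/AβN/25 acceptor, biotinylated mid-region 4G8 donor); IC50 from 4-parameter fit of percent control versus log concentration.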

Like-named read-outs stand apart in the source and are kept apart here.

Take `COc1cc(-c2nc3n(n2)CCCC3c2cccc(OC(F)(F)F)c2)ccc1-n1cnc(C)c1` (stereo not drawn) [Compound 267]: the concentration for half-maximal inhibition (IC50) is 49 nM in assay [1] and more than 10000 nM in assay [2].
Consider `COc1cc(-c2nc3n(n2)CCCC3c2ccc(C(F)(F)F)cc2)ccc1-n1cnc(C)c1` (stereo not drawn) [Compound 268], for which the 50% inhibitory concentration (IC50) in assay [1] is 141 nM; in assay [2], more than 10000 nM.
Regarding `COc1cc(-c2nc3n(n2)CCCC3(O)c2ccc(F)cc2C)ccc1-n1cnc(C)c1` (stereo not drawn) [Compound 269], the IC50 in assay [1] (Homo sapiens) is 148 nM; in assay [2] (Homo sapiens), more than 10000 nM.
For `COc1cc(-c2nc3n(n2)CCCC32CCCCC2)ccc1-n1cnc(C)c1` [Compound 270], the 50% inhibitory concentration (IC50) in assay [1] is 170 nM; in assay [2], more than 10000 nM.
For `COc1cc(-c2nc(Oc3ccccc3Cl)n(C)n2)ccc1-n1cnc(C)n1` [Compound 272] the same measures were 7590 nM and more than 10000 nM.
On to `COc1cc(-c2nc(Nc3cccc(C(F)(F)F)c3)n(C)n2)ccc1-n1cnc(C)n1` [Compound 273], for which the figures for the IC50 in assay [1] and in assay [2] were 155 nM and 10000 nM, respectively.
For `COc1cc(-c2nc3n(n2)CCC(c2ccccc2C(F)(F)F)N3)ccc1-n1cnc(C)c1` (stereo not drawn) [Compound 274], the half-maximal inhibitory concentration (IC50) in assay [1] (Homo sapiens) was 155 nM; in assay [2] (Homo sapiens), 8710 nM.
For `COc1cc(-c2nc3n(n2)CCN(C(C)=O)C3c2ccccc2C(F)(F)F)ccc1-n1cnc(C)c1` (stereo not drawn) [Compound 276] the same measures were 832 nM and more than 10000 nM.
With `COc1cc(-c2nc3n(n2)CCN(C(C)=O)C3c2cccc(C(F)(F)F)c2)ccc1-n1cnc(C)c1` (stereo not drawn) [Compound 277], the IC50 is 661 nM in assay [1] and more than 10000 nM in assay [2].
In the case of `COc1cc(-c2nc3n(n2)CCOC3c2ccccc2C(F)(F)F)ccc1-n1cnc(C)c1` (stereo not drawn) [Compound 279], the results for the IC50 in assay [1] (Homo sapiens) and in assay [2] (Homo sapiens) were 62 nM and more than 10000 nM, respectively.
In the case of `COc1cc(-c2nc3n(n2)CCOC3c2ccc(F)cc2C)ccc1-n1cnc(C)c1` (stereo not drawn) [Compound 280], the half-inhibitory concentration (IC50) in assay [1] is 191 nM; in assay [2], more than 10000 nM.
With `COc1cc(-c2nc3n(n2)CCOC3c2ccc(F)cc2F)ccc1-n1cnc(C)c1` (stereo not drawn) [Compound 282], the IC50 in assay [1] is 380 nM; in assay [2], more than 10000 nM.
For `COc1cc(-c2nc3n(n2)CCCCC3c2ccccc2C(F)(F)F)ccc1-n1cnc(C)c1` (stereo not drawn) [Compound 283], in that order: 78 nM and 7940 nM.
For `COc1cc(-c2nc3n(n2)CCCOC3c2ccc(F)cc2)ccc1-n1cnc(C)c1` (stereo not drawn) [Compound 284] the same measures were 229 nM and more than 10000 nM.
For `COc1cc(-c2nc3n(n2)CCCOC3c2ccccc2C(F)(F)F)ccc1-n1cnc(C)c1` (stereo not drawn) [Compound 285], in that order: 76 nM and more than 10000 nM.
As to `COc1cc(-c2nc3c(-c4ccccc4Cl)cccn3n2)ccc1-n1cnc(C)c1` [Compound 286], the IC50 in assay [1] came to 145 nM; in assay [2], 10000 nM.
`COc1cc(-c2nc3c(-c4cccc(OC(F)(F)F)c4)cccn3n2)ccc1-n1cnc(C)c1` [Compound 287]: the IC50 is 355 nM in assay [1] and more than 10000 nM in assay [2].
For `COc1cc(-c2nc3c(-c4ccccc4OC(F)(F)F)cccn3n2)ccc1-n1cnc(C)c1` [Compound 288] the same measures were 151 nM and more than 10000 nM.
For `COc1cc(-c2nc3c(Nc4cccc(C(F)(F)F)c4)cccn3n2)ccc1-n1cnc(C)c1` [Compound 289] the same measures were 708 nM and more than 10000 nM.
For `COc1cc(-c2nc3c(-c4ccccc4)nccn3n2)ccc1-n1cnc(C)c1` [Compound 292], the results for the IC50 in assay [1] and in assay [2] were 2340 nM and more than 10000 nM, respectively.
For `COc1cc(-c2nc3c(-c4cccc(C(F)(F)F)c4)nccn3n2)ccc1-n1cnc(C)c1` [Compound 293], in that order: 2340 nM and more than 10000 nM.
For `COc1cc(-c2nc(-c3cc(C(F)(F)F)ccc3C)nn2C)ccc1-n1cnc(C)c1` [Compound 296] the same measures were 1510 nM and 6030 nM.
For `COc1cc(-c2nc(-c3cc(Cl)ccc3C)n[nH]2)ccc1-n1cnc(C)c1` [Compound 297], in that order: 263 nM and more than 10000 nM.
Take `COc1cc(-c2nc(-c3cc(Cl)ccc3C)nn2C)ccc1-n1cnc(C)c1` [Compound 298]: the concentration for half-maximal inhibition (IC50) in assay [1] is 3090 nM; in assay [2], more than 10000 nM.
For `COc1cc(-c2nc(N3CCCN(C(C)=O)CC3)n(C(C)C)n2)ccc1-n1cnc(C)c1` [Compound 301], in that order: more than 10000 nM and more than 10000 nM.
As for `COc1cc(-c2nc3n(n2)CCOC3c2ccc(F)cc2C)ccc1-n1cnc(C)c1` (stereo not drawn) [Compound 305], the IC50 is 646 nM in assay [1] and more than 10000 nM in assay [2].
As to `COc1cc(-c2nc(Nc3cc(C(=O)N(C)C)ccc3F)n(C)n2)ccc1-n1cnc(C)c1` [Compound 308], the IC50 in assay [1] is 1700 nM; in assay [2], more than 10000 nM.
For `COc1cc(-c2nc(Nc3cc(S(C)(=O)=O)ccc3F)n(C)n2)ccc1-n1cnc(C)c1` [Compound 309] the same measures were 1070 nM and more than 10000 nM.
Regarding `COc1cc(-c2nc(CNc3cccc(C(F)(F)F)c3)n(C)n2)ccc1-n1cnc(C)c1` [Compound 311], the values for the half-maximal inhibitory concentration (IC50) in assay [1] and in assay [2] were 186 nM and 7410 nM, respectively.
As to `COc1cc(-c2nc3n(n2)CCCC3c2c(F)cc(F)cc2F)ccc1-n1cnc(C)c1` (stereo not drawn) [Compound 312], the IC50 in assay [1] is 123 nM; in assay [2], more than 10000 nM.
Take `COc1nc(-c2nc3n(n2)CCCC3c2ccc(F)cc2C)ccc1-n1cnc(C)c1` (stereo not drawn) [Compound 313]: the half-maximal inhibitory concentration (IC50) in assay [1] is 68 nM; in assay [2], more than 10000 nM.
For `COc1cc(-c2nc3n(n2)CCC[C@@H]3c2ccc(F)cc2C)ccc1-n1cnc(C)c1` [Compound 314] the same measures were 288 nM and more than 10000 nM.
For `COc1cc(-c2nc3n(n2)CCOC3c2ccccc2C(F)(F)F)ccc1-n1cnc(C)c1` (stereo not drawn) [Compound 316] the same measures were 661 nM and more than 10000 nM.
For `COc1cc(-c2nc(Nc3cccc4c3OC(F)(F)O4)n(C)n2)ccc1-n1cnc(C)c1` [Compound 317], in that order: 34 nM and 7940 nM.
On to `COc1c(-n2cnc(C)c2)ccc(-c2nc(Nc3ccccc3C)n(C)n2)c1F` [Compound 318], for which the IC50 in assay [1] is 240 nM; in assay [2], more than 10000 nM.
For `Cc1cn(-c2ccc(-c3nc(Nc4cc(C(F)(F)F)ccc4F)n(C)n3)nc2C)cn1` [Compound 319] the same measures were 490 nM and more than 10000 nM.
For `Cc1cn(-c2ccc(-c3nc(Nc4ccccc4C(F)(F)F)n(C)n3)cc2C#N)cn1` [Compound 321], the half-maximal inhibitory concentration (IC50) in assay [1] is 182 nM; in assay [2] it was more than 15000 nM.
For `COc1cc(-c2nc(Nc3c(C)cccc3F)n(C)n2)ccc1-n1cnc(C)c1` [Compound 323] the same measures were 51 nM and more than 10000 nM.
For `COc1cc(-c2nc(Nc3ccccc3C(C)=O)n(C)n2)ccc1-n1cnc(C)c1` [Compound 324] the same measures were 1320 nM and more than 10000 nM.
Regarding `COc1cc(-c2nc(N3CCOc4ccccc43)n(C)n2)ccc1-n1cnc(C)c1` [Compound 325], the half-inhibitory concentration (IC50) in assay [1] is 182 nM; in assay [2], more than 10000 nM.
For `COc1cc(-c2nc(-c3ccc4ccccc4n3)n(C)n2)ccc1-n1cnc(C)c1` [Compound 326] the same measures were 3090 nM and more than 10000 nM.
For `COc1cc(-c2nc(N3CCCOc4ccccc43)n(C)n2)ccc1-n1cnc(C)c1` [Compound 327] the same measures were 1180 nM and more than 10000 nM.
For the compound `CCOc1cc(C)c(Nc2nc(-c3ccc(-n4cnc(C)c4)c(OC)c3)nn2C)cc1C(C)C` [Compound 328], the IC50 amounted to 7 nM in assay [1] and 145 nM in assay [2].
For `COc1cc(-c2nc(C(=O)Nc3cccc(C(F)(F)F)c3)n(C)n2)ccc1-n1cnc(C)c1` [Compound 329] the same measures were 3090 nM and 851 nM.
For `COCc1ccc(F)c(Nc2nc(-c3ccc(-n4cnc(C)c4)c(OC)c3)nn2C)c1` [Compound 331] the same measures were 56 nM and more than 10000 nM.
For `COc1cc(-c2nc3n(n2)CCC[C@@H]3c2ccc(F)cc2C)ccc1-n1cnc(C)c1` [Compound 332], in that order: 234 nM and more than 10000 nM.
Take `COc1cc(-c2nc3n(n2)CCC[C@H]3c2ccc(F)cc2C)ccc1-n1cnc(C)c1` [Compound 333]: the IC50 in assay [1] was 26 nM; in assay [2], more than 10000 nM.
As for `COc1cc(-c2nc3n(n2)CCCC3(CO)c2ccc(F)cc2C)ccc1-n1cnc(C)c1` (stereo not drawn) [Compound 334], the IC50 in assay [1] (Homo sapiens) is 263 nM; in assay [2] (Homo sapiens), more than 10000 nM.
As for `COc1cc(-c2nc(Nc3ccccc3)n(C)n2)ccc1-n1cnc(C)c1` [Compound 335], the IC50 in assay [1] is 200 nM; in assay [2] it was more than 10000 nM.
For `COc1cc(-c2nc3n(n2)CCCC3c2ccccc2C(F)(F)F)ccc1-n1cnc(C)c1` (stereo not drawn) [Compound 336], in that order: 129 nM and more than 10000 nM.
For the compound `COc1cc(-c2nc3n(n2)CCC[C@@H]3c2cc(C(F)(F)F)ccc2C)ccc1-n1cnc(C)c1` [Compound 339], the IC50 in assay [1] was 155 nM; in assay [2] it was more than 10000 nM.
For `COc1cc(-c2nc3n(n2)CCC[C@H]3c2cc(C(F)(F)F)ccc2C)ccc1-n1cnc(C)c1` [Compound 341], in that order: 12 nM and 7760 nM.
On to `COc1nc(-c2nc3n(n2)CCC[C@@H]3c2cc(C(F)(F)F)ccc2C)ccc1-n1cnc(C)c1` [Compound 342], for which the half-inhibitory concentration (IC50) is 162 nM in assay [1] and more than 10000 nM in assay [2].
Take `COc1cc(-c2nc3n(n2)CCCC3c2ccccc2C)ccc1-n1cnc(C)c1` (stereo not drawn) [Compound 344]: the IC50 is 52 nM in assay [1] and more than 10000 nM in assay [2].
